Results published in patent US11505523B2, “HDAC8 inhibitors for treating cancer” (City of Hope, priority 2013, dated 2022).
“Also recorded” adds a separate entry of the source.

Legend:
Cl1-1 cells = assay: Cytotoxicity / anti-proliferative activity in CL1-1 lung cancer cells; details: read-out: Cytotoxicity IC50 Cl1-1; mean SD of three determinations
[1] = test system: dTomato^+/cKit^+ AML cells (CBFβ-SMMHC^+ LSCs); assay: Ex vivo treatment of CM-induced AML cells followed by transplantation into irradiated congenic mice; assay type: in vivo
Description: FIGS. 6A-6G. […] FIG. 6A: Schematic illustration of experimental design. […] Progression of AML was monitored by engraftment of AML cells in peripheral blood (PB) over time (4, 8 weeks) and engraftment in bone marrow and spleen was analyzed 8 weeks after transplantation. A cohort of mice was monitored for AML development and disease-free survival. […] Results represent mean±SD. […] FIG. 6D: Representative FACS plots of engrafted dTomato^+/cKit^+ AML cells in the bone marrow or spleen 8 weeks after transplantation.
Ai14 Cre reporter tdTomato mice on C57BL/6 background were obtained from the Jackson Laboratory. To induce CBFβ-SMMHC expression, 4-6 week old Mx1-Cre/Cbfb^56M/+ mice were injected with 250 μg of polyinosinic-polycytidylic acid (pIpC) (InvivoGen) every 2 days for 7 doses. Similarly treated Cbfb^56M/+ littermates without Cre were used as control. Pre-leukemic cells were isolated from mice 2 weeks after the last dose of pIpC treatment. For leukemia development, induced mice were monitored up to 6 months and analyzed when moribund. Transplantation of AML cells (2×10^6 cells/mouse) was performed via tail vein injection into sub-lethally irradiated (6.5 Gy) 6-8-week-old congenic C57BL/6 mice (CD45.1^+/CD45.2^+). All mice were maintained in an AAALAC-accredited animal facility at City of Hope, and all experimental procedures involving mice were performed in accordance with federal and state government guidelines and established institutional guidelines and protocols approved by the Institutional Animal Care and Use Committee at Beckman Research Institute of City of Hope.
AML LSCs are functionally characterized by their capacity to engraft and reproduce AML disease in transplanted host. […] To test this, we made use of our murine CM-induced AML model allowing for high-level engraftment and reproducible disease upon secondary transplantation. To facilitate tracking of CM-expressing AML cells, we created Cbfb^56M/+/Mx1-Cre mice with a Cre-reporter line expressing tdTomato fluorescence protein following Cre-mediated recombination.

[2] = test system: normal HSCs (CB CD34^+ cells); assay: Engraftment of normal CB CD34+ cells treated ex vivo into NSG mice; details: 10 μM 48 h ex vivo, 16 weeks
Text: FIGS. 18A-18F. […] Shown are engraftment levels of each population (CD45+, CD34+, CD33+, CD14+, CD15+) in the bone marrow and spleen weight at 16 weeks after transplantation. […] FIGS. 18A-18F (in order): CD45+, CD34+, CD33+, CD14+, CD15+, and spleen.
AML is maintained by LSCs that are relatively resistant to chemotherapy and can persist as potential sources of relapse. Even though AML with CBF translocations are considered to have favorable prognosis, the incidence of relapse is still 25-58% with chemotherapy.

HDAC10 = HDAC10 (Homo sapiens (Human), UniProt Q969S8); assay: Inhibition of purified HDAC10; details: read-out: HDAC 10 IC50; class II
[3] = test system: inv(16)^+ AML CD34^+ cells; assay: Proliferation of inv(16)+ AML CD34+ cells, ATP-based cell viability assay; design: species or system human; details: 48 h, 2.5 μM to 40 μM, compared to normal CD34+ cells
[4] = test system: p53 target genes in 32D-CM cells; assay: qRT-PCR of p53 target genes in 32D-CM cells; assay type: cell-based; details: 10 μM, 16 h
[5] = test system: p53 target genes in normal CD34^+ cells; assay: qRT-PCR of p53 target genes in normal CD34+ cells; assay type: cell-based, human; details: similar treatment
Text: FIGS. 5A-5G. […] FIG. 5A: Relative expression level of HDAC8 in normal (NL) PBSC (n=7) or inv(16)^+ AML (n=7) CD34^+ cells determined by qRT-PCR. Levels of HDAC8 expression were normalized to levels of ACTB in each sample. Dashed line indicates the average of all NL PBSC samples (set to an arbitrary value of 1). […] Each dot represents an individual subject and lines indicate mean±SEM. * P<0.05; ** P<0.01; *** P<0.001. […] Each dot represents an individual patient and lines indicate mean±SEM. * P<0.05; ** P<0.01; *** P<0.001. […] Levels of β-actin were detected as loading control. Shown are representative results from four patients. […] Each dot represents an individual subject and lines indicate mean±SEM. Dash line indicates levels in vehicle treated cells. * P<0.05; ** P<0.01; *** P<0.001. […] Each dot represents an individual patient and lines indicate mean±SEM.

MOLM13 cells = assay: Proliferation of MOLM13 cells, luminescent cell viability assay; assay type: cell-based, human; details: 48-hr, luminescent cell viability assay; read-out: MOLM13 Proliferation IC50
CL1-5 cells = assay: Cytotoxicity / anti-proliferative activity in CL1-5 lung cancer cells
HeLa nuclear HDACs = assay: Inhibition of HeLa nuclear HDACs (HeLa nuclear extract, mainly HDACs1-3); assay type: biochemical; details: read-out: HeLa HDAC IC50
HDAC3 = HDAC3 (Homo sapiens (Human), UniProt O15379); assay: Inhibition of purified HDAC3; details: read-out: HDAC 3 IC50; class I
[6] = test system: p53 target genes in pre-leukemic and leukemic progenitor cells expressing CM; details: 10 μM, 16 h, qRT-PCR
Description: Relative expression of each target gene was normalized to levels of Hprt. Shown are fold activation compared to levels in vehicle treated cells (dashed line). Results represent the mean±SD.
We next examined whether enhanced p53 acetylation translate into increased p53 transcriptional activity. Using qRT-PCR assay, we accessed induction of p53 target genes in CM-ΔC95, CM, and CBFβ expressing cells upon IR (3Gy).

[7] = test system: inv(16)^+ AML CD34^+ cells; assay: Apoptosis of inv(16)+ AML CD34+ cells, Annexin V staining; assay type: cell-based, human
Text: Given that the frequency of TP53 mutation is relatively low in AML, altered post-translational modification by HDAC8 could represent an alternative p53-inactivating mechanism and contribute to drug resistance of AML stem cells. We first examined the expression of HDAC8 in CD34^+ stem and progenitor cells isolated from patients with inv(16)^+ AML compared to normal mobilized peripheral blood stem cells (PBSC).

HDAC3, sequence (O15379 whole entry, looked up, species assumed): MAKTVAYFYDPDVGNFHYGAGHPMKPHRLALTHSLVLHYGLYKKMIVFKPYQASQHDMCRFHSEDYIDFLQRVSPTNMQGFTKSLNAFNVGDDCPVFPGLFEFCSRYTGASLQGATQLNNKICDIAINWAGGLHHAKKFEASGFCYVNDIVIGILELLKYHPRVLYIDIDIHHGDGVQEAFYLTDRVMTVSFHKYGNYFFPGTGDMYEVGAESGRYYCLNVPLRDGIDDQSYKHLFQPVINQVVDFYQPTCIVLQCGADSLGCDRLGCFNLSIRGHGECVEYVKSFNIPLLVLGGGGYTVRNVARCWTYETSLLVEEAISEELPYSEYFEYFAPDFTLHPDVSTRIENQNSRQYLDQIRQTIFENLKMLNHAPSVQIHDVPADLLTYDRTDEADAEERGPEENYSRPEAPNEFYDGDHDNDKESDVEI
HDAC3, sequence (Q9Y618 whole entry partner, looked up, species assumed): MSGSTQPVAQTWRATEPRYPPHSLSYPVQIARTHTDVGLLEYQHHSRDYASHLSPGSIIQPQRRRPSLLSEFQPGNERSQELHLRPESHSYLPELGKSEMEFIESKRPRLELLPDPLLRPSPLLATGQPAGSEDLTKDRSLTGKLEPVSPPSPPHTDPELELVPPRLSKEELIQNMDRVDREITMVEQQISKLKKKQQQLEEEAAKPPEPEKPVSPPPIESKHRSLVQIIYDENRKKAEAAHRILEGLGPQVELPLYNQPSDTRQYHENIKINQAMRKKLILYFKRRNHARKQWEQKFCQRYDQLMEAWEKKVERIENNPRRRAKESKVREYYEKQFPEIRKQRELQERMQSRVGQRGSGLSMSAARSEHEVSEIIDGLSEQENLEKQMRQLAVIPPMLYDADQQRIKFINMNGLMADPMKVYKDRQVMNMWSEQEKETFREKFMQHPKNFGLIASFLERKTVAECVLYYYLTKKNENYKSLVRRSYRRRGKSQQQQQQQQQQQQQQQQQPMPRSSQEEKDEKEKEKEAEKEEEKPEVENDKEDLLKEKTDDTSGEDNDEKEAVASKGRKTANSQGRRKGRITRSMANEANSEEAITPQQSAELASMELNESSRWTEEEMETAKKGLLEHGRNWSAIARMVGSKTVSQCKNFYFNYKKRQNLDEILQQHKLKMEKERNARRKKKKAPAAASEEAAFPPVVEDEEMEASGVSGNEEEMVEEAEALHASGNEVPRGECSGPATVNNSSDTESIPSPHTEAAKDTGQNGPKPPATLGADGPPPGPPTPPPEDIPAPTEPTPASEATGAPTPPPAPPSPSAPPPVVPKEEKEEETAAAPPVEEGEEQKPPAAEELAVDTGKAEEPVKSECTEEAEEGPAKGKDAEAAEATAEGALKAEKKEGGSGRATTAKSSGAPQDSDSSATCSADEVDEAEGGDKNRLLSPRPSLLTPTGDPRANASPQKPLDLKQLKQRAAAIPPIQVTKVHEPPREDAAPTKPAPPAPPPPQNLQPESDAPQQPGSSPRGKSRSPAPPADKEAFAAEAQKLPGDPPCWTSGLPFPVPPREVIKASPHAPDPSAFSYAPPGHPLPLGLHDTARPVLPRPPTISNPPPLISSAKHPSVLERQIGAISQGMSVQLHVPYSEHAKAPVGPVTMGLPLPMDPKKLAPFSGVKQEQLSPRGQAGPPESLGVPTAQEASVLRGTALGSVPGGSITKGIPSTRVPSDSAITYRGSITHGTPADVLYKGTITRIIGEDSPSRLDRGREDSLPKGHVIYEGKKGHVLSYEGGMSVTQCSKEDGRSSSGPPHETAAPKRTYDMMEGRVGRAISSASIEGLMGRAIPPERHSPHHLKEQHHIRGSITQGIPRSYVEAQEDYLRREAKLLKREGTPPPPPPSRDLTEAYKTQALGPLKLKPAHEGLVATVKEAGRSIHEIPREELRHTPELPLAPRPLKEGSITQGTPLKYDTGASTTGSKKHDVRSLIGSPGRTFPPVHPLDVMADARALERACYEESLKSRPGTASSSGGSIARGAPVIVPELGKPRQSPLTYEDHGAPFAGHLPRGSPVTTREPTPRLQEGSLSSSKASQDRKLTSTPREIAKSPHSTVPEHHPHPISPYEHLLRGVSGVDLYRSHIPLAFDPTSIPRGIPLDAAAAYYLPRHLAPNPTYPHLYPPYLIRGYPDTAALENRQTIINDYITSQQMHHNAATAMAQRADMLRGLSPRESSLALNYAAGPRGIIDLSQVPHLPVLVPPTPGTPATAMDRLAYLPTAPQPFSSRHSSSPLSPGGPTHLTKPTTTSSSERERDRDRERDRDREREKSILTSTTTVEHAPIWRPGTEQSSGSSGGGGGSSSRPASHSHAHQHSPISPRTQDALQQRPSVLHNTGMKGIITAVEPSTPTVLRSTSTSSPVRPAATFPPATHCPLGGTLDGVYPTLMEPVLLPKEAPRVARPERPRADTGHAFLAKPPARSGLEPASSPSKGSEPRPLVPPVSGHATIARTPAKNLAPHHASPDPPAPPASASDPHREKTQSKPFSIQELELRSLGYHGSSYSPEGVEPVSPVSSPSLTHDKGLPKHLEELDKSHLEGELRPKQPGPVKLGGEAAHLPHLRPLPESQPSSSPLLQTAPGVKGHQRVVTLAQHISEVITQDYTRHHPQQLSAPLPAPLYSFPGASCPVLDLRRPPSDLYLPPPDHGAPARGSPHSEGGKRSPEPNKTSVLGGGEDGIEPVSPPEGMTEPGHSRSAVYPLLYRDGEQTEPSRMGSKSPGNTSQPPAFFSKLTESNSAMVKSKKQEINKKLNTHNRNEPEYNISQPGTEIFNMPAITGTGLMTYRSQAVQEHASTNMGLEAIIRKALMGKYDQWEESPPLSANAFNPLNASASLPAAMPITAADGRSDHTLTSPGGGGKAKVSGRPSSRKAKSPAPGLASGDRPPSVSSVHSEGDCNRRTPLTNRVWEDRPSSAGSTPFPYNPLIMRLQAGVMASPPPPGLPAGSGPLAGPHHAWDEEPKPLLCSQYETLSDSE
HDAC10, sequence (Q969S8 whole entry, species assumed): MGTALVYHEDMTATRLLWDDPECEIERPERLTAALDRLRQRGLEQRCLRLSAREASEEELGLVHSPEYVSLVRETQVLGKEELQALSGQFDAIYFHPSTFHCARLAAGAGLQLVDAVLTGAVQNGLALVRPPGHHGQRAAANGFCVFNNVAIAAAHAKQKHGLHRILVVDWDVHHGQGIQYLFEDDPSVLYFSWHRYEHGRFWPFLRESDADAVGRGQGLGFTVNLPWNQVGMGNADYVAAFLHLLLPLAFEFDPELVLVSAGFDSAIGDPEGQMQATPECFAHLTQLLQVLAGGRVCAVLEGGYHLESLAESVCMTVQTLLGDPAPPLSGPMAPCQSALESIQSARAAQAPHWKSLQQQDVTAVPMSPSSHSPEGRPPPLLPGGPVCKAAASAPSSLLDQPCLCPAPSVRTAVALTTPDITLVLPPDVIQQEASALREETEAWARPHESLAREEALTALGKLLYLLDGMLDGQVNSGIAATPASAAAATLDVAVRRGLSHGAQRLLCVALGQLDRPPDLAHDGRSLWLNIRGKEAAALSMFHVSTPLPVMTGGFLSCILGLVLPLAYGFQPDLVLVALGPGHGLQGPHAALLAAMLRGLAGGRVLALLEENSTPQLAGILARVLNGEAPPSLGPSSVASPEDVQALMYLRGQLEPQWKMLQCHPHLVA

Question: With `COc1ccc(/C=C/C(=O)NO)c(-c2ccc(-c3ccccc3)cc2)c1` [Compound 22d, (E)-N-Hydroxy-4-methoxy-2-(biphenyl-4-yl)cinnamide] as the molecule, how does the IC50 (Cl1-1 cells) read?
Answer: > 10 nM

Question: And the “frequencies of dTomato+/cKit+ AML cells in BM and spleen” value ([1]; 8 weeks after transplantation, vs vehicle-treated cells)?
Answer: significantly (p=0.025) reduced frequencies

Question: And the “total numbers of dTomato+/cKit+ AML cells in BM and spleen” value ([1]; 8 weeks after transplantation, vs vehicle-treated group)?
Answer: significantly (p=0.025) lower

Question: And the “dTomato+/cKit+ cells in the peripheral blood” value ([1]; cells treated 10 μM 48 h before transplantation)?
Answer: barely detectable

Question: What about the “engraftment of dTomato+ and dTomato+/cKit+ cells” value ([1]; equal number (2×10^6) of treated AML cells transplanted) of the same molecule?
Answer: reduced the engraftment

Question: And the “AML onset and survival of transplanted mice” value ([1]; mouse, in vivo)?
Answer: prevented AML reoccurrence

Question: And the survival of mice ([1]; mouse, in vivo)?
Answer: enhanced survival

Question: And the “engraftment activity of normal HSCs” value [2]?
Answer: does not affect normal HSC engraftment; also recorded: no impact on short-term or long-term engraftment activity

Question: What about the IC50 (HDAC10) of the same molecule?
Answer: > 20 nM

Question: What about the “proliferation of inv(16)+ CD34+ cells” value [3] of the same molecule?
Answer: significantly reduced proliferation

Question: What about the “activation of p53 targets (Bax, Puma, p21, Gadd45b and LincRNA-p21)” value [4] of the same molecule?
Answer: Variable levels of activation

Question: And the “p53 target expression in normal CD34+ cells” value [5]?
Answer: no or little change in p53 target expression

Question: What about the IC50 (MOLM13 cells) of the same molecule?
Answer: 2420 nM

Question: And the IC50 (CL1-5 cells; read-out: Cytotoxicity IC50 Cl1-5, mean SD of three determinations)?
Answer: 7 ± 1.5 nM

Question: And the “activity in CL1-5 cells” value (CL1-5 cells; result in words)?
Answer: activity similar to that of SAHA

Question: What about the IC50 (HeLa nuclear HDACs) of the same molecule?
Answer: > 10000 nM

Question: And the IC50 (HDAC3)?
Answer: 3 ± 0.1 nM

Question: And the “activation of p53 target genes in progenitor cells expressing endogenous levels of CM” value [6]?
Answer: induces activation of p53 targets

Question: What about the “apoptosis of inv(16)+ AML CD34+ cells” value ([7]; 48 h, compared to normal CD34+ cells or non-inv(16) AML) of the same molecule?
Answer: selectively induced apoptosis

Question: What about the “22d-induced apoptosis after p53 knock-down” value ([7]; p53 shRNA vs non-silencing shRNA control, 2.5-40 μM) of the same molecule?
Answer: reduction of 22d-induced apoptosis
